Measurements reported in patent publication US10167257B2, “Indole derivatives for use in medicine” (IOmet Pharma Ltd., priority 2014, dated 2019).

How the values were obtained:
TDO (A172 cells) = target: T1, TDO (A172 cells) (Homo sapiens, UniProt P48775); test: TDO cell-based assay (A172), kynurenine production; conditions: A172 human glioblastoma cells, 500 μM L-Trp, 48 h, kynurenine by absorbance at 490 nm
T1 construct: This assay utilised cancer cells which expressed either TDO or IDO; host or cells: A172 human glioblastoma cells
T1 sequence (P48775 whole entry): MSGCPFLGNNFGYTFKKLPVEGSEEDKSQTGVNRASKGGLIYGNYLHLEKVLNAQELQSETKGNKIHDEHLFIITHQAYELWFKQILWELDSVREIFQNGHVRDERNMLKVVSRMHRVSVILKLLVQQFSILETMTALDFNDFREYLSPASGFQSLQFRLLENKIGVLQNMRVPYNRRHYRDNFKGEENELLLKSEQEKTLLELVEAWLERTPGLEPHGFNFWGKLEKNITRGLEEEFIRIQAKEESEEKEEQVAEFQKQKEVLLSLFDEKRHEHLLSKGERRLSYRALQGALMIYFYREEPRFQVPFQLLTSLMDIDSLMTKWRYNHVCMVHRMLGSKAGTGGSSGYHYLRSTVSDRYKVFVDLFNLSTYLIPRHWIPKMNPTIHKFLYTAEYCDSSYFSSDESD
Description: (§1) Two different types of assay were employed: 1. A TDO and IDO biochemical coupled assay which utilised recombinantly produced and purified TDO and IDO enzymes in combination with the enzyme formamidase. This coupled enzyme system allowed conversion of N-formylkynurenine produced by TDO or IDO activity to kynurenine which was then quantified by fluorescence following addition of Erhlich's Reagent. 2. A cell-based assay for detecting the effect of test compounds on kynurenine production in two different cancer cell types. This assay utilised cancer cells which expressed either TDO or IDO and as such was used as a means of testing compound activity at these two enzymes in a cell-based context. The protocols for these are set out below.
(§2) A172 human glioblastoma (ATCC) were grown in DMEM+2 mM L-glutamine medium supplemented with 10% foetal bovine serum and SKOV-3 ovary adenocarcinoma (ATCC) cells were grown in McCoys 5A+L-glutamax medium supplemented with 15% foetal bovine serum. On the day of assay, cells were detached using trypsin-EDTA (0.25% v/v), re-suspended in assay media (RPMI 1640 phenol red free+L-glutamine supplemented with 10% dialysed foetal bovine serum). A172 cells were seeded at 30K cells per well and SKOV-3 cells at 40K cells per well into 96-well plates containing test samples/vehicle control together with 500 μM L-Trp. Cells were then incubated for 48 h at 37° C., 5% CO2. In SK-OV-3 cells, IFNγ was also added at 500 ng/ml for the 48 h incubation in order to induce expression of IDO. Plates were centrifuged and the supernatant was removed and incubated for 5 min in the presence of 1% Erhlich's reagent. Kynurenine levels were then quantified by measuring absorbance at 490 nm.

IDO (SKOV-3 cells) = target: T2, IDO (SKOV-3 cells) (Homo sapiens, UniProt P14902); test: IDO cell-based assay (SKOV-3, IFNγ-induced), kynurenine production; conditions: SKOV-3 ovary adenocarcinoma cells, IFNγ 500 ng/ml, 500 μM L-Trp, 48 h, kynurenine by absorbance at 490 nm
T2 construct: This assay utilised cancer cells which expressed either TDO or IDO; host or cells: SKOV-3 ovary adenocarcinoma cells, IFNγ-induced
T2 sequence (P14902 whole entry): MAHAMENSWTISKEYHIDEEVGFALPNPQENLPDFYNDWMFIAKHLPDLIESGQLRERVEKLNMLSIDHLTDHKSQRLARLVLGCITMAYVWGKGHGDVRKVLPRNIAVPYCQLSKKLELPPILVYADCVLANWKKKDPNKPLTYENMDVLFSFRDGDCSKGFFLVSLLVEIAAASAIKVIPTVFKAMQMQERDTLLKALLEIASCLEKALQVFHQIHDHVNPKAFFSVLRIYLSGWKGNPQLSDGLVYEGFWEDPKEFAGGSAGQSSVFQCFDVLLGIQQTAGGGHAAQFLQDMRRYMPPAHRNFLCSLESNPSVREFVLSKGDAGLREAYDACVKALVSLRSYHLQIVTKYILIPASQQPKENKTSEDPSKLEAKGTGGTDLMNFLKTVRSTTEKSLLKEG
Description: as §1, §2

SMILES	TDO cellular assay (A172) pIC50 (TDO (A172 cells))	IDO cellular assay (SKOV3) pIC50 (IDO (SKOV-3 cells))
CC(NC(=O)c1cc2ccncc2[nH]1)c1ccccc1 (stereo not drawn) [Compound 81]	− (− = pIC50 <4.50)	+ (+ = pIC50 4.50-<5.00)
CC(NC(=O)c1cc2cc(C#N)ccc2[nH]1)c1ccccc1 (stereo not drawn) [Compound 82]	+++ (+++ = pIC50 ≥5.50)	+++ (+++ = pIC50 ≥5.50)
CC(NC(=O)c1cc2cc(Cl)ccc2[nH]1)c1ccc(S(C)(=O)=O)cc1 (stereo not drawn) [Compound 84]	++ (++ = pIC50 5.00-<5.50)	+++ (+++ = pIC50 ≥5.50)
CC(NC(=O)c1cc2ccc(C#N)cc2[nH]1)c1ccccc1 (stereo not drawn) [Compound 85]	++ (++ = pIC50 5.00-<5.50)	++ (++ = pIC50 5.00-<5.50)
CC(Cc1ccccc1)NC(=O)c1cc2cc(Cl)ccc2[nH]1 (stereo not drawn) [Compound 86]	+++ (+++ = pIC50 ≥5.50)	+++ (+++ = pIC50 ≥5.50)
CC(NC(=O)c1cc2cc(Cl)ccc2[nH]1)c1ccc(N(C)C)cc1 (stereo not drawn) [Compound 87]	+ (+ = pIC50 4.50-<5.00)	+++ (+++ = pIC50 ≥5.50)
CC(NC(=O)c1cc2cc(C(N)=O)ccc2[nH]1)c1ccccc1 (stereo not drawn) [Compound 88]	+++ (+++ = pIC50 ≥5.50)	− (− = pIC50 <4.50)
CC(NC(=O)c1cc2ccc(C(N)=O)cc2[nH]1)c1ccccc1 (stereo not drawn) [Compound 89]	+++ (+++ = pIC50 ≥5.50)	− (− = pIC50 <4.50)
CC(NC(=O)c1cc2cc(Cl)ccc2[nH]1)c1ccc(C(=O)N2CCOCC2)cc1 (stereo not drawn) [Compound 90]	− (− = pIC50 <4.50)	+++ (+++ = pIC50 ≥5.50)
CC(NC(=O)c1cc2cc(Cl)ccc2[nH]1)c1ccc(C(=O)N2CCN(C)CC2)cc1 (stereo not drawn) [Compound 91]	− (− = pIC50 <4.50)	+ (+ = pIC50 4.50-<5.00)
O=C(NC(CO)c1ccccc1)c1cc2cc(Cl)ccc2[nH]1 (stereo not drawn) [Compound 92]	+ (+ = pIC50 4.50-<5.00)	+++ (+++ = pIC50 ≥5.50)
COCCN(C)C(=O)c1ccc(C(C)NC(=O)c2cc3cc(Cl)ccc3[nH]2)cc1 (stereo not drawn) [Compound 93]	+ (+ = pIC50 4.50-<5.00)	+++ (+++ = pIC50 ≥5.50)
CC(NC(=O)c1cc2cc(Cl)ccc2[nH]1)C1CC1 (stereo not drawn) [Compound 94]	+ (+ = pIC50 4.50-<5.00)	++ (++ = pIC50 5.00-<5.50)
CC(NC(=O)c1cc2cc(Cl)ccc2[nH]1)c1ccc(N2CCN(C)CC2)cc1 (stereo not drawn) [Compound 95]	− (− = pIC50 <4.50)	+ (+ = pIC50 4.50-<5.00)
CC(NC(=O)c1cc2cc(Cl)ccc2[nH]1)c1ncc[nH]1 (stereo not drawn) [Compound 96]	− (− = pIC50 <4.50)	+ (+ = pIC50 4.50-<5.00)
CC(NC(=O)c1cc2cc(Cl)ccc2[nH]1)c1cnoc1 (stereo not drawn) [Compound 97]	+ (+ = pIC50 4.50-<5.00)	++ (++ = pIC50 5.00-<5.50)
CC(NC(=O)c1cc2cc(Cl)ccc2[nH]1)C1CCCC1 (stereo not drawn) [Compound 98]	− (− = pIC50 <4.50)	+++ (+++ = pIC50 ≥5.50)
O=C(NC(c1ccccc1)C1CC1)c1cc2cc(Cl)ccc2[nH]1 (stereo not drawn) [Compound 99]	+ (+ = pIC50 4.50-<5.00)	+++ (+++ = pIC50 ≥5.50)
COCCOc1ccc(C(C)NC(=O)c2cc3cc(Cl)ccc3[nH]2)cc1 (stereo not drawn) [Compound 100]	++ (++ = pIC50 5.00-<5.50)	+++ (+++ = pIC50 ≥5.50)
CC(C)C(NC(=O)c1cc2cc(Cl)ccc2[nH]1)c1ccccc1 (stereo not drawn) [Compound 101]	+ (+ = pIC50 4.50-<5.00)	+++ (+++ = pIC50 ≥5.50)

SMILES	TDO cellular assay (A172) pIC50 (TDO (A172 cells))	IDO cellular assay (SKOV3) pIC50 (IDO (SKOV-3 cells))
CC(NC(=O)c1cc2cc(Cl)ccc2[nH]1)c1ccc(OCCN(C)C)cc1 (stereo not drawn) [Compound 102]	− (− = pIC50 <4.50)	+ (+ = pIC50 4.50-<5.00)
CC(NC(=O)c1cc2cc(Cl)ccc2[nH]1)C1CCOCC1 (stereo not drawn) [Compound 103]	− (− = pIC50 <4.50)	+++ (+++ = pIC50 ≥5.50)
CC(NC(=O)c1cc2cc(Cl)ccc2[nH]1)c1ncco1 (stereo not drawn) [Compound 104]	+ (+ = pIC50 4.50-<5.00)	++ (++ = pIC50 5.00-<5.50)
CC(=O)N1CCC(C(C)NC(=O)c2cc3cc(Cl)ccc3[nH]2)CC1 (stereo not drawn) [Compound 105]	− (− = pIC50 <4.50)	+++ (+++ = pIC50 ≥5.50)
CNC(=O)c1ccc2[nH]c(C(=O)NC(C)c3ccccc3)cc2c1 (stereo not drawn) [Compound 106]	− (− = pIC50 <4.50)	+ (+ = pIC50 4.50-<5.00)
Cc1ccnc(C(NC(=O)c2cc3cc(Cl)ccc3[nH]2)C2CC2)c1 (stereo not drawn) [Compound 107]	− (− = pIC50 <4.50)	++ (++ = pIC50 5.00-<5.50)
O=C(NCC1CCCN(C(=O)C2CC2)C1)c1cc2cc(Cl)ccc2[nH]1 (stereo not drawn) [Compound 108]	− (− = pIC50 <4.50)	++ (++ = pIC50 5.00-<5.50)
COc1cccc(-c2cc(CNC(=O)c3cc4cc(Cl)ccc4[nH]3)on2)c1 [Compound 109]	− (− = pIC50 <4.50)	++ (++ = pIC50 5.00-<5.50)
O=C(NCCc1nccs1)c1cc2cc(Cl)ccc2[nH]1 [Compound 110]	− (− = pIC50 <4.50)	++ (++ = pIC50 5.00-<5.50)
CC(NC(=O)c1cc2cc(Cl)ccc2[nH]1)C1CCN(S(C)(=O)=O)CC1 (stereo not drawn) [Compound 111]	− (− = pIC50 <4.50)	++ (++ = pIC50 5.00-<5.50)
COc1cccc(-n2cc(CNC(=O)c3cc4cc(Cl)ccc4[nH]3)cn2)c1 [Compound 112]	− (− = pIC50 <4.50)	+++ (+++ = pIC50 ≥5.50)
COc1ccc(-c2noc(CNC(=O)c3cc4cc(Cl)ccc4[nH]3)n2)cc1OC [Compound 113]	− (− = pIC50 <4.50)	+++ (+++ = pIC50 ≥5.50)
CCC(NC(=O)c1cc2cc(Cl)ccc2[nH]1)c1ccccc1 (stereo not drawn) [Compound 114]	− (− = pIC50 <4.50)	+++ (+++ = pIC50 ≥5.50)
CC(NC(=O)c1cc2cc(Cl)ccc2[nH]1)c1cnn(-c2ccccc2F)c1 (stereo not drawn) [Compound 115]	+ (+ = pIC50 4.50-<5.00)	+++ (+++ = pIC50 ≥5.50)
O=C(NC1Cc2ccccc2C1)c1cc2cc(Cl)ccc2[nH]1 [Compound 116]	++ (++ = pIC50 5.00-<5.50)	− (− = pIC50 <4.50)
CCN(Cc1noc(CC(C)C)n1)C(=O)c1cc2cc(Cl)ccc2[nH]1 [Compound 117]	+ (+ = pIC50 4.50-<5.00)	++ (++ = pIC50 5.00-<5.50)
Cc1ccccc1C1CCN(CCNC(=O)c2cc3cc(Cl)ccc3[nH]2)C1 (stereo not drawn) [Compound 118]	+ (+ = pIC50 4.50-<5.00)	++ (++ = pIC50 5.00-<5.50)
O=C(NC1CCCCC1O)c1cc2cc(Cl)ccc2[nH]1 (stereo not drawn) [Compound 119]	− (− = pIC50 <4.50)	+ (+ = pIC50 4.50-<5.00)
Cc1nccc2c(NC(=O)c3cc4cc(F)ccc4[nH]3)cccc12 [Compound 120]	− (− = pIC50 <4.50)	+++ (+++ = pIC50 ≥5.50)
